{"source": "patent US20090297545A1", "about": "“IMMUNOMODULATORY DAIRY PEPTIDES AND USES THEREOF” (Universite Laval, priority 2008, published 2009)", "assay_type_in_all_cases": "cell-based, BALB/c mice", "key": {"murine splenocytes [1]": {"system": "murine splenocytes", "experiment": "Ex vivo murine splenocytes proliferation assay (Alamar Blue), Example I", "settings": "peptide 2000 μg/mL, FIG. 2"}, "murine splenocytes [2]": {"system": "murine splenocytes", "experiment": "Cytokine secretion in splenocyte culture supernatants by ELISA, Example I", "description": "Cytokine analysis. The supernatants from 72 h-splenocytes cultures were collected and their cytokine content was measured. The optimal incubation times were determined from preliminary assays with peptide fractions. The levels of IL-4, IL-10 and IFN-γ were determined using commercial ELISA kits (BioLegend, San Diego, Calif., USA) according to the manufacturer's instructions. Interleukin-2 levels were also measured by ELISA using a commercial kit (BioSource International, Camarillo, Calif., USA) according to the manufacturer's instructions. The results are the means of four or more assays (three wells per sample). The detection limits for IL-2, IL-4, IL-10 and IFN-γ were <8.0, <1.0, <30.0 and <4.0 pg/mL, respectively.\nCytokine analysis were performed at concentration leading to optimal spleen cells proliferation of peptide β-Lg f139-148 (SEQ ID NO. 1) (2000 μg/mL) as reported in Tables 2 and 3. The sequence β-Lg f78-83 (SEQ ID NO. 10), resulting in no effect on the cytokine secretion of resting- and ConA-stimulated murine splenocytes (results not shown), was used as control at concentration of 10 μg/mL for statistical analysis. The effects of the selected peptide on cytokine secretion from splenocytes cultured in the absence and presence of 0.5 μg/mL of ConA are shown in Table 5."}, "murine splenocytes [3]": {"system": "murine splenocytes", "experiment": "Ex vivo murine splenocytes proliferation assay (Alamar Blue), Example I", "description": "Ex vivo murine splenocytes proliferation assay. The splenocytes were isolated from 6- to 12-weeks-old female BALB/c mice (Charles River, St-Constant, QC, Canada) and cultured in the absence and presence of suboptimal concentration of ConA (0.5 μg/mL). The peptides were solubilized in complete RPMI medium, agitated overnight at 4° C. then the solutions were adjusted to pH 7. Thereafter, the peptide solutions were added at various final concentrations (10-2000 μg/mL, protein basis) to the wells of 96-well round-bottomed microplates, which were incubated at 37° C. at 80% relative humidity in a 5% CO2 atmosphere for 72 h (with ConA) or 96 h (without ConA). Cell proliferation was evaluated by the reduction of the fluorochrome Alamar Blue™ (BioSource international, Camarillo, Calif., USA), which was added into the wells for the last 24 h of the incubation periods. The fluorescence of the supernatants was monitored at an excitation wavelength of 560 nm and an emission wavelength of 590 nm using a fluorometer (Fluoroscan Ascent, Thermo Electron Inc., Milford, Mass., USA). The assays were performed in triplicate (three wells per sample) and data are expressed as stimulation indices (SI), and calculated using the following equations: […]"}, "[4]": {"settings": "splenocytes with ConA 0.5 μg mL^−1, control peptide 10 μg/mL"}, "[5]": {"settings": "splenocytes without ConA, control peptide 10 μg/mL"}}, "note": "Values joined by “and” are separate entries in the source; they are usually repeats but may differ in a detail not shown here. Equal entries are not always repeated.", "data": [{"substance": "IPAVFK (listed as Homo sapiens) [β-Lg f78-83, β-lactoglobulin fragment 78-83 used as control peptide, reference compound]", "values": [{"measurement": "Microscopic appearance of resting- and ConA-stimulated cultured cells", "setting": "murine splenocytes [1]", "result": "no effect on the appearance of cultured cells"}, {"measurement": "Effect on the cytokine secretion of resting- and ConA-stimulated murine splenocytes", "setting": "murine splenocytes [2]; results not shown", "result": "no effect"}, {"measurement": "IFN-γ secretion in supernatant", "setting": "murine splenocytes [2]; [4]", "result": 252.9, "unit": "pg/mL"}, {"measurement": "IL-2 secretion in supernatant", "setting": "murine splenocytes [2]; [4]", "result": 15.6, "unit": "pg/mL"}, {"measurement": "IL-4 secretion in supernatant", "setting": "murine splenocytes [2]; [4]", "result": 4.4, "unit": "pg/mL"}, {"measurement": "IL-10 secretion in supernatant", "setting": "murine splenocytes [2]; [4]", "result": "<30.0", "unit": "pg/mL"}, {"measurement": "IFN-γ secretion in supernatant", "setting": "murine splenocytes [2]; [5]", "result": 7.1, "unit": "pg/mL"}, {"measurement": "IL-2 secretion in supernatant", "setting": "murine splenocytes [2]; [5]", "result": 10.0, "unit": "pg/mL"}, {"measurement": "IL-4 secretion in supernatant", "setting": "murine splenocytes [2]; [5]", "result": "<1.0", "unit": "pg/mL"}, {"measurement": "IL-10 secretion in supernatant", "setting": "murine splenocytes [2]; [5]", "result": "<30.0", "unit": "pg/mL"}, {"measurement": "Effect on the proliferation of ConA-stimulated murine splenocytes", "setting": "murine splenocytes [3]; all concentrations studied (10-2000 μg/mL), ConA 0.5 μg/mL, FIG. 1B", "result": "no effect"}, {"measurement": "Effect on the proliferation of resting murine splenocytes", "setting": "murine splenocytes [3]; all concentrations studied (10-2000 μg/mL), FIG. 1A", "result": "no effect"}, {"measurement": "Stimulation index, proliferation of murine splenocytes in the presence of Concavanalin A", "setting": "murine splenocytes [3]; peptide 10 μg mL^−1, 72 h, ConA 0.5 μg/mL", "result": "2.10 and 1.91 and 1.93 and 1.68"}, {"measurement": "Stimulation index, proliferation of resting murine splenocytes", "setting": "murine splenocytes [3]; peptide 10 μg mL^−1, 96 h, without ConA", "result": "0.98 and 1.00 and 1.11 and 1.02 and 1.04"}]}]}
